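The compound was tested at five concentrations on cells cultured in 96-well plates, with a 48-hour exposure period. At the GI50, growth is halved. Definition used: TGI = concentration required for complete inhibition of growth.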
Columns and labels:
Assay in all cases: NCI anticancer screen, dose series, 48 h
SK-MEL-28 melanoma = system: SK-MEL-28 melanoma
SK-MEL-2 melanoma = system: SK-MEL-2 melanoma
SNB-19 CNS = system: SNB-19 CNS
ACHN renal = system: ACHN renal
NCI-H226 lung = system: NCI-H226 lung
RXF 393 renal = system: RXF 393 renal
SN12C renal = system: SN12C renal
A498 renal = system: A498 renal
MCF7 breast = system: MCF7 breast
DU-145 prostate = system: DU-145 prostate

SMILES | TGI (SK-MEL-28 melanoma) [µM] | TGI (SK-MEL-2 melanoma) [µM] | TGI (SNB-19 CNS) [µM] | TGI (ACHN renal) [µM] | TGI (NCI-H226 lung) [µM] | TGI (RXF 393 renal) [µM] | TGI (SN12C renal) [µM] | TGI (A498 renal) [µM] | GI50 (SK-MEL-28 melanoma) [µM] | GI50 (SK-MEL-2 melanoma) [µM] | GI50 (SNB-19 CNS) [µM] | GI50 (ACHN renal) [µM] | GI50 (A498 renal) [µM] | GI50 (NCI-H226 lung) [µM] | GI50 (MCF7 breast) [µM] | TGI (MCF7 breast) [µM] | GI50 (DU-145 prostate) [µM] | TGI (DU-145 prostate) [µM] | GI50 (SN12C renal) [µM] | GI50 (RXF 393 renal) [µM]
COc1ccc(C(=O)O)c(Cc2cccc3ccccc23)c1 | > 100 | > 100 | > 100 | > 100 | > 100 | > 100 | > 100 | – | – | – | – | – | – | – | – | – | – | – | – | –
Cc1ccc(NC(=O)C2C(=O)N(c3ccc(C)c(C)c3)C(=O)/C2=N/O)cc1C (configuration not stated) | > 100 | > 100 | > 100 | > 100 | > 100 | > 100 | > 100 | > 100 | – | – | – | – | – | – | – | – | – | – | – | –
C[C@]12CC[C@@H]3c4ccc(Oc5nc(N6CC6)nc(N6CC6)n5)cc4CC[C@H]3[C@@H]1CCC2=O | 42.8 | 8.97 | 21.5 | 13 | 30.8 | – | 15.8 | 5.79 | 6.01 | 3.16 | 7.25 | 1.13 | 1.88 | 3.23 | 2.78 | 14.7 | 1.82 | 6.46 | 1.74 | –
Nc1c(-c2ccc(Br)cc2)[n+]([O-])c2ccccc2[n+]1[O-] | > 100 | > 100 | > 100 | > 100 | > 100 | – | > 100 | > 100 | – | – | – | – | – | – | – | – | – | – | – | –
CCCCC/C=C/C/C=C/CCCCCCCC1=NC(C)(C)CN1C(C)C | 3.07 | 3.35 | 3 | 3.07 | – | 4.8 | 4.08 | 15.5 | 1.7 | 1.85 | 1.59 | 1.7 | 2.35 | – | 1.54 | 2.87 | 1.73 | 3.11 | 1.71 | 2.1
Cc1c2c(nn1-c1ccc(S(=O)(=O)/N=C3\SCC(=O)N3C(=O)c3ccccc3)cc1)-c1ccccc1CC2 | > 100 | > 100 | – | 70.2 | 56.4 | 77.5 | 45.8 | – | 52.5 | > 100 | – | 24.6 | – | 24 | – | – | 38.6 | > 100 | 19.2 | 28.8
COc1ccc2cc(C(=O)/C=C/c3cccc(OC)c3OC)ccc2c1 | 44.5 | 40.3 | 33.5 | 22.2 | – | 12.9 | 14 | 26.6 | 19.4 | 21.3 | 15.6 | 8.38 | 13.3 | – | 0.455 | 22.9 | 15.3 | 34.2 | 3.83 | 3.76
C=C1C(=O)O[C@H]2[C@H]1CC/C(COC(=O)/C=C\C(=O)NCc1ccc(Cn3c(=O)sn(-c4ccc(C#N)cc4)c3=O)cc1)=C\CC[C@@]1(C)O[C@@H]21 | 1.61 | 2.03 | 2.27 | 1.14 | 5.63 | 1.22 | 1.57 | 1.55 | 0.857 | 0.935 | 0.969 | 0.545 | 0.769 | 1.36 | – | – | 0.725 | 1.4 | 0.671 | 0.576
COc1cc(C(=O)O[C@H](C(N)=O)[C@]2(C)CO2)c2ccccc2c1 | 31.5 | 42.7 | 30.3 | 30.9 | 38.4 | 47.3 | – | – | 15.6 | 17.2 | 15.8 | 15.9 | – | 20.1 | 27.3 | > 100 | – | – | – | 17.3
COC(=O)CSc1n[nH]c(-c2ccc(O)c([N+](=O)[O-])c2)n1 | > 100 | > 100 | > 100 | > 100 | > 100 | > 100 | > 100 | > 100 | – | – | – | – | – | – | – | – | – | – | – | –
CCOC(=O)NC(=O)c1cn(CCCOC(=O)NCCCCCCNC(=O)OCCCn2c(=O)c(C(=O)NC(=O)OCC)cn(C)c2=O)c(=O)n(C)c1=O | > 100 | > 100 | – | > 100 | > 100 | 92.4 | > 100 | > 100 | – | – | – | – | – | – | – | – | – | – | – | –
O=C1C2=C(CC3C(C2)C3(Br)Br)C(=O)C2=C1CC1C(C2)C1(Br)Br (configuration not stated) | > 100 | > 100 | > 100 | > 100 | > 100 | > 100 | > 100 | > 100 | – | – | – | – | – | – | – | – | – | – | – | –
N#Cc1cnsc1 | > 100 | > 100 | – | > 100 | > 100 | > 100 | > 100 | > 100 | – | – | – | – | – | – | – | – | – | – | – | –
NCCCNCCSSCCCCS(=O)O | 55.2 | – | > 100 | > 100 | > 100 | 79.8 | > 100 | > 100 | – | – | – | – | – | – | – | – | – | – | – | –
CC(C)(C)C1=CC(=CC=C2C=CN(CCCCCCCCCCCO)C=C2)C=C(C(C)(C)C)C1=O | 3 | 3.5 | 3.15 | > 25.2 | – | 2.47 | 2.73 | 7.3 | – | – | – | – | – | – | – | 1.23 | – | 20.7 | – | –
Cc1ccc(N=NC(C(=O)c2ccccc2)C(=O)c2ccccc2)cc1 | > 100 | 55.4 | 86.4 | > 100 | 40.6 | – | 55.2 | > 100 | – | – | – | – | – | – | – | – | – | – | – | –
CCCCCCCCCCCCCCCCOP(=O)(O)Oc1ccc(/C=C\c2ccc(OP(=O)(O)OCCCCCCCCCCCCCCCC)cc2)cc1 | > 100 | > 100 | > 100 | > 100 | > 100 | 9.1 | > 100 | > 100 | – | – | – | – | – | – | – | – | – | – | – | –
Cc1cc(NS(=O)(=O)c2ccc(NC(=O)c3cccc4c(=O)c5ccccc5[nH]c34)cc2)no1 | > 100 | > 100 | > 100 | > 100 | > 100 | – | > 100 | 79 | – | – | – | – | – | – | – | – | – | – | – | –
CC(C)=[CH][Sb]([Br])([CH]=C(C)C)([CH]=C(C)C)[CH]=C(C)C | > 100 | > 100 | 89.4 | > 100 | – | 81.1 | > 100 | > 100 | 11.3 | 15.4 | 14.7 | 28.8 | 41 | – | – | – | – | – | 24.7 | 21.2
Cc1ccc(C(=O)/C=C/c2ccccc2O)c(C)c1 | > 100 | > 100 | > 100 | > 100 | > 100 | > 100 | > 100 | > 100 | – | – | – | – | – | – | – | – | – | – | – | –

From PubChem BioAssay (NCI)
